Test results as given in PMC9911596 (Nature Communications, 2023).
Changes are numbered by the printed parent chain.

Key:
[1] = molecular target: T1, Vtc1/Vtc3/Vtc4 complex (VTC complex) (Saccharomyces cerevisiae, UniProt P47075+Q02725, Q02725:Y22F/Q02725:K26A/Q02725:K130A); assay: polyP synthesis, TBE-PAGE; assay type: biochemical; settings: activator; 15 mM ATP, 10 mM MgCl2, 1 mM MnCl2, 0.5 mM pyrophosphate, 27 °C, 4 h; SPX PBC mutant
T1 construct: full-length subunits co-expressed in Expi293F; Vtc1 C-terminal HA, Vtc3 N-terminal 3xFlag, Vtc4 C-terminal 2xStrep; detergent-purified; 3:1:1 pentamer; with Vacuolar transporter chaperone complex subunit 1
T1 sequence (P47075 1-721): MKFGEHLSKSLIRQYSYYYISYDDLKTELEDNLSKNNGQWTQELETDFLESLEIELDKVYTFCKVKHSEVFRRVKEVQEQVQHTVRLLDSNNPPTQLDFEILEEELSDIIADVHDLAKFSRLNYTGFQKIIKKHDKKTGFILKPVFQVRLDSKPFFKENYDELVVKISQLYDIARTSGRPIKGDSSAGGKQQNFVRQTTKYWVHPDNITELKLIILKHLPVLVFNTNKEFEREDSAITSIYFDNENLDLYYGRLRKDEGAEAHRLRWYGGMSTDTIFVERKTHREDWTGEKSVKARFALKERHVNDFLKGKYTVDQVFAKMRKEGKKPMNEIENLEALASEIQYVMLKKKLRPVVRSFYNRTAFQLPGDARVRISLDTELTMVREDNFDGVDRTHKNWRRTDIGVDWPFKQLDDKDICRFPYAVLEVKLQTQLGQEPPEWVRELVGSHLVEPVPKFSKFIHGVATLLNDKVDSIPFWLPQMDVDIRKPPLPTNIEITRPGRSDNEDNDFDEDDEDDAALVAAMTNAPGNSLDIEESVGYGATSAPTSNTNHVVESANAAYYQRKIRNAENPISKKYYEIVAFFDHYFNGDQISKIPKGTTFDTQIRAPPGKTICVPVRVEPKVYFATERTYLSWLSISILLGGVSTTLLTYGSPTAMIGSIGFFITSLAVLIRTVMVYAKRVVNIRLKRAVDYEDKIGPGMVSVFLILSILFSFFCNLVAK
T1 sequence (Q02725 1-835 Y22F/K26A/K130A): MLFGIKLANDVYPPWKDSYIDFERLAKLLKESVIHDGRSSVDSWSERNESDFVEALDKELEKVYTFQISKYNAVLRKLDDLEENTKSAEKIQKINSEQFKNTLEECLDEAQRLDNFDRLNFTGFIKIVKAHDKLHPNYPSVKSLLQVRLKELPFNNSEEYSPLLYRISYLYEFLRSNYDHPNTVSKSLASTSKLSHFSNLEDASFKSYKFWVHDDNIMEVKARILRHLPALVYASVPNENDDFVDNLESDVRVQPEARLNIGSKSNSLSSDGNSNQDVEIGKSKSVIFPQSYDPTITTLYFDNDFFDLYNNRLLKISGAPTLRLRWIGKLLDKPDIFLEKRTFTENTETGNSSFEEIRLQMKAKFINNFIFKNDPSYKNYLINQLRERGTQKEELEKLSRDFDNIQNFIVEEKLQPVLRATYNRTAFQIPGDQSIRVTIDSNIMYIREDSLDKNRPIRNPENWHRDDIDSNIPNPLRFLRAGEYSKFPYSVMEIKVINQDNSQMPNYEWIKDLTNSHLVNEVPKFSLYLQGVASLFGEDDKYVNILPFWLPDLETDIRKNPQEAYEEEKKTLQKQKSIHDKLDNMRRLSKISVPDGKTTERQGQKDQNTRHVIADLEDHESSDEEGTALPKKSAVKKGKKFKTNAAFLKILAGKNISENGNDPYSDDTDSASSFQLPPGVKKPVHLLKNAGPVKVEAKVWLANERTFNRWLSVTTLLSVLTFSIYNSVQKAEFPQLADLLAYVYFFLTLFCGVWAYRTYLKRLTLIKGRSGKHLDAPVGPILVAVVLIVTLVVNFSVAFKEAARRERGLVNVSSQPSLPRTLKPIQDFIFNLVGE
T1 sequence (P40046 2-129 partner): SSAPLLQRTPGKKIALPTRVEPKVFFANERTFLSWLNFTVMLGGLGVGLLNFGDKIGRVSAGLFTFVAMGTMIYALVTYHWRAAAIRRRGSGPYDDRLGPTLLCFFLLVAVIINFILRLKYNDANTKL

[2] = molecular target: T2, Vtc1/Vtc3/Vtc4 complex (VTC complex) (Saccharomyces cerevisiae, UniProt P47075+Q02725); assay: polyP synthesis, TBE-PAGE and DAPI; smFRET; assay type: biochemical; settings: activator; 15 mM ATP, 10 mM MgCl2, 1 mM MnCl2, 0.5 mM pyrophosphate, ATP regeneration, 27 °C, 4 h; up to 10 mM InsP6; SPX domain of Vtc4 as sensor
T2 construct: full-length subunits co-expressed in Expi293F; Vtc1 C-terminal HA, Vtc3 N-terminal 3xFlag, Vtc4 C-terminal 2xStrep; detergent-purified; 3:1:1 pentamer; with Vacuolar transporter chaperone complex subunit 1
T2 sequence (P47075 1-721): T1 sequence (P47075 1-721)
T2 sequence (Q02725 1-835): T1 sequence (Q02725 1-835 Y22F/K26A/K130A) with F22Y, A26K, A130K
T2 sequence (P40046 2-129 partner): T1 sequence (P40046 2-129 partner)

With `O=P(O)(O)O[C@H]1[C@H](OP(=O)(O)O)[C@@H](OP(=O)(O)O)[C@H](OP(=O)(O)O)[C@@H](OP(=O)(O)O)[C@H]1OP(=O)(O)O` [InsP6] the “polyP synthesis, TBE-PAGE” value [1] was “residues had little effect on polyP synthesis” and the “polyP synthesis, TBE-PAGE and DAPI; smFRET” value [2] was “harbors polyP polymerase activity and that synthesizes polyP in an InsP6 dose-dependent manner”.
